Laboratory results reported in PubChem BioAssay (NCI).
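Growth conditions: 96-well plates. Treatment: test compound, 48 hours, 5 concentrations. Analysis: linear interpolation between bracketing concentrations; unreached endpoints set to highest concentration. Definition used: TGI = concentration required for complete inhibition of growth.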

Assays:
Assay in all cases: growth of human tumour cells (NCI), 48 h
MCF7 breast = tested on: MCF7 breast
A549 NSCLC = tested on: A549 NSCLC
SK-MEL-2 melanoma = tested on: SK-MEL-2 melanoma
EKVX NSCLC = tested on: EKVX NSCLC
SF-539 CNS = tested on: SF-539 CNS
CCRF-CEM leukemia = tested on: CCRF-CEM leukemia
HOP-62 NSCLC = tested on: HOP-62 NSCLC
SF-268 CNS = tested on: SF-268 CNS
SR leukemia = tested on: SR leukemia
MOLT-4 leukemia = tested on: MOLT-4 leukemia
MALME-3M melanoma = tested on: MALME-3M melanoma
A498 renal = tested on: A498 renal
SNB-19 CNS = tested on: SNB-19 CNS
ACHN renal = tested on: ACHN renal
RPMI-8226 leukemia = tested on: RPMI-8226 leukemia
HCT-15 colon = tested on: HCT-15 colon
NCI-H23 lung = tested on: NCI-H23 lung
T-47D breast = tested on: T-47D breast
LOX IMVI melanoma = tested on: LOX IMVI melanoma
UACC-62 melanoma = tested on: UACC-62 melanoma
OVCAR-3 ovarian = tested on: OVCAR-3 ovarian
U251 CNS = tested on: U251 CNS
HL-60(TB) leukemia = tested on: HL-60(TB) leukemia
MDA-N = tested on: MDA-N
NCI-H226 lung = tested on: NCI-H226 lung
NCI/ADR-RES ovarian = tested on: NCI/ADR-RES ovarian
SF-295 CNS = tested on: SF-295 CNS
SK-MEL-5 melanoma = tested on: SK-MEL-5 melanoma
DU-145 prostate = tested on: DU-145 prostate
786-0 renal = tested on: 786-0 renal
BT-549 breast = tested on: BT-549 breast
M14 melanoma = tested on: M14 melanoma
SW-620 colon = tested on: SW-620 colon
NCI-H522 lung = tested on: NCI-H522 lung
SK-OV-3 ovarian = tested on: SK-OV-3 ovarian
SK-MEL-28 melanoma = tested on: SK-MEL-28 melanoma
HCC-2998 colon = tested on: HCC-2998 colon
HCT-116 colon = tested on: HCT-116 colon
OVCAR-4 ovarian = tested on: OVCAR-4 ovarian
IGROV1 ovarian = tested on: IGROV1 ovarian
KM12 colon = tested on: KM12 colon
COLO 205 colon = tested on: COLO 205 colon
SN12C renal = tested on: SN12C renal
UO-31 renal = tested on: UO-31 renal
HS 578T breast = tested on: HS 578T breast
HT29 colon = tested on: HT29 colon
CAKI-1 renal = tested on: CAKI-1 renal
TK-10 renal = tested on: TK-10 renal
SNB-75 CNS = tested on: SNB-75 CNS
PC-3 prostate = tested on: PC-3 prostate
K-562 leukemia = tested on: K-562 leukemia
UACC-257 melanoma = tested on: UACC-257 melanoma
OVCAR-5 ovarian = tested on: OVCAR-5 ovarian
MDA-MB-435 = tested on: MDA-MB-435
MDA-MB-231 breast = tested on: MDA-MB-231 breast
RXF 393 renal = tested on: RXF 393 renal
HOP-92 NSCLC = tested on: HOP-92 NSCLC
OVCAR-8 ovarian = tested on: OVCAR-8 ovarian
NCI-H460 lung = tested on: NCI-H460 lung

SMILES: O=C(NCCCNC(=O)c1ccc2c(O)c(O)ccc2c1)c1ccc2c(O)c(O)ccc2c1
- TGI (MCF7 breast): > 100 µM
- TGI (A549 NSCLC): > 100 µM
- TGI (SK-MEL-2 melanoma): > 81.6 µM
- TGI (EKVX NSCLC): > 79.9 µM
- TGI (SF-539 CNS): > 100 µM
- TGI (CCRF-CEM leukemia): > 100 µM
- TGI (HOP-62 NSCLC): 48.1 µM
- TGI (SF-268 CNS): 58.1 µM
- TGI (SR leukemia): > 90.7 µM
- TGI (MOLT-4 leukemia): 52.3 µM
- TGI (MALME-3M melanoma): > 100 µM
- TGI (A498 renal): 98 µM
- TGI (SNB-19 CNS): > 70.9 µM
- TGI (ACHN renal): 55.9 µM
- TGI (RPMI-8226 leukemia): > 100 µM
- TGI (HCT-15 colon): > 72.5 µM
- TGI (NCI-H23 lung): 52.8 µM
- TGI (T-47D breast): > 100 µM
- TGI (LOX IMVI melanoma): > 100 µM
- TGI (UACC-62 melanoma): > 90 µM
- TGI (OVCAR-3 ovarian): 56.5 µM
- TGI (U251 CNS): 64.4 µM
- TGI (HL-60(TB) leukemia): > 100 µM
- TGI (MDA-N): 41.4 µM
- TGI (NCI-H226 lung): > 100 µM
- TGI (NCI/ADR-RES ovarian): > 100 µM
- TGI (SF-295 CNS): 38.2 µM
- TGI (SK-MEL-5 melanoma): 46.9 µM
- TGI (DU-145 prostate): > 100 µM
- TGI (786-0 renal): 57.9 µM
- TGI (BT-549 breast): 35.2 µM
- TGI (M14 melanoma): 78.8 µM
- TGI (SW-620 colon): > 62.2 µM
- TGI (NCI-H522 lung): 48.5 µM
- TGI (SK-OV-3 ovarian): > 100 µM
- TGI (SK-MEL-28 melanoma): > 100 µM
- TGI (HCC-2998 colon): > 100 µM
- TGI (HCT-116 colon): > 94.4 µM
- TGI (OVCAR-4 ovarian): > 100 µM
- TGI (IGROV1 ovarian): 40.8 µM
- TGI (KM12 colon): 39.7 µM
- TGI (COLO 205 colon): 50.6 µM
- TGI (SN12C renal): 52.2 µM
- TGI (UO-31 renal): 65.7 µM
- TGI (HS 578T breast): 56.1 µM
- TGI (HT29 colon): > 64.8 µM
- TGI (CAKI-1 renal): > 100 µM
- TGI (TK-10 renal): > 85.6 µM
- TGI (SNB-75 CNS): 42.5 µM
- TGI (PC-3 prostate): > 100 µM
- TGI (K-562 leukemia): > 78.7 µM
- TGI (UACC-257 melanoma): 53 µM
- TGI (OVCAR-5 ovarian): > 74.4 µM
- TGI (MDA-MB-435): 36.1 µM
- TGI (MDA-MB-231 breast): > 73.4 µM
- TGI (RXF 393 renal): > 70 µM
- TGI (HOP-92 NSCLC): > 100 µM
- TGI (OVCAR-8 ovarian): 99.1 µM

SMILES: O=C(c1ccccc1)c1c(-c2ccccc2)[nH]n(-c2ccc([N+](=O)[O-])cc2)c(=O)c1=O
- TGI (MCF7 breast): > 100 µM
- TGI (A549 NSCLC): > 100 µM
- TGI (SK-MEL-2 melanoma): 61.5 µM
- TGI (EKVX NSCLC): > 100 µM
- TGI (SF-539 CNS): 88 µM
- TGI (CCRF-CEM leukemia): > 100 µM
- TGI (HOP-62 NSCLC): > 100 µM
- TGI (SF-268 CNS): > 100 µM
- TGI (SR leukemia): > 100 µM
- TGI (MOLT-4 leukemia): > 100 µM
- TGI (MALME-3M melanoma): > 100 µM
- TGI (A498 renal): > 100 µM
- TGI (SNB-19 CNS): > 100 µM
- TGI (ACHN renal): > 100 µM
- TGI (RPMI-8226 leukemia): > 100 µM
- TGI (HCT-15 colon): > 100 µM
- TGI (NCI-H460 lung): > 100 µM
- TGI (NCI-H23 lung): > 100 µM
- TGI (T-47D breast): > 100 µM
- TGI (UACC-62 melanoma): > 100 µM
- TGI (OVCAR-3 ovarian): > 100 µM
- TGI (U251 CNS): > 100 µM
- TGI (HL-60(TB) leukemia): > 100 µM
- TGI (MDA-N): > 100 µM
- TGI (NCI-H226 lung): > 100 µM
- TGI (NCI/ADR-RES ovarian): > 100 µM
- TGI (SF-295 CNS): > 100 µM
- TGI (SK-MEL-5 melanoma): > 100 µM
- TGI (DU-145 prostate): > 100 µM
- TGI (786-0 renal): > 100 µM
- TGI (BT-549 breast): 98.8 µM
- TGI (M14 melanoma): > 100 µM
- TGI (SW-620 colon): > 100 µM
- TGI (NCI-H522 lung): 73.7 µM
- TGI (SK-OV-3 ovarian): > 100 µM
- TGI (SK-MEL-28 melanoma): > 100 µM
- TGI (HCC-2998 colon): > 100 µM
- TGI (HCT-116 colon): > 100 µM
- TGI (OVCAR-4 ovarian): > 100 µM
- TGI (IGROV1 ovarian): > 100 µM
- TGI (KM12 colon): > 100 µM
- TGI (COLO 205 colon): > 100 µM
- TGI (SN12C renal): > 100 µM
- TGI (UO-31 renal): > 100 µM
- TGI (HS 578T breast): > 100 µM
- TGI (HT29 colon): > 100 µM
- TGI (CAKI-1 renal): > 100 µM
- TGI (TK-10 renal): > 100 µM
- TGI (PC-3 prostate): > 100 µM
- TGI (K-562 leukemia): > 100 µM
- TGI (UACC-257 melanoma): > 100 µM
- TGI (OVCAR-5 ovarian): > 100 µM
- TGI (MDA-MB-435): > 100 µM
- TGI (MDA-MB-231 breast): 98.9 µM
- TGI (RXF 393 renal): > 100 µM
- TGI (HOP-92 NSCLC): 50.9 µM
- TGI (OVCAR-8 ovarian): > 100 µM
